Laboratory results reported in the NIST ThermoML archive (doi:10.1016/j.jct.2005.01.017).

Assay: xn = mol fraction of the nth substance listed
Conditions: 101 kPa, Liquid

CC1COC(=O)O1 (configuration not stated) [4-methyl-1,3-dioxolan-2-one] + Cc1cccc(C)c1
Conditions | mass density [kg/m3]
293.15 K, x2 = 0 | 1200.25
293.15 K, x2 = 0.0576 | 1173.76
293.15 K, x2 = 0.1263 | 1143.64
293.15 K, x2 = 0.1735 | 1123.83
293.15 K, x2 = 0.2267 | 1102.36
293.15 K, x2 = 0.2867 | 1079.14
293.15 K, x2 = 0.3548 | 1054
293.15 K, x2 = 0.4243 | 1029.6
293.15 K, x2 = 0.4671 | 1015.15
293.15 K, x2 = 0.5341 | 993.4
293.15 K, x2 = 0.5811 | 978.7
293.15 K, x2 = 0.6532 | 957.01
293.15 K, x2 = 0.7213 | 937.38
293.15 K, x2 = 0.7831 | 920.23
293.15 K, x2 = 0.8421 | 904.39
293.15 K, x2 = 0.9212 | 883.89
303.15 K, x2 = 0 | 1180.56
303.15 K, x2 = 0.0476 | 1159.4
303.15 K, x2 = 0.1178 | 1129.53
303.15 K, x2 = 0.1822 | 1103.48
303.15 K, x2 = 0.2248 | 1086.93
303.15 K, x2 = 0.2978 | 1059.75
303.15 K, x2 = 0.3681 | 1034.91
303.15 K, x2 = 0.4348 | 1012.48
303.15 K, x2 = 0.5038 | 990.33
303.15 K, x2 = 0.5598 | 973.11
303.15 K, x2 = 0.6139 | 957.05
303.15 K, x2 = 0.6738 | 939.89
303.15 K, x2 = 0.7355 | 922.85
303.15 K, x2 = 0.8021 | 905.11
303.15 K, x2 = 0.8837 | 884.19
303.15 K, x2 = 0.9475 | 868.42
313.15 K, x2 = 0 | 1161.28
313.15 K, x2 = 0.0564 | 1137.19
313.15 K, x2 = 0.1291 | 1107.58
313.15 K, x2 = 0.1781 | 1088.5
313.15 K, x2 = 0.2378 | 1066.16
313.15 K, x2 = 0.3021 | 1043.18
313.15 K, x2 = 0.3614 | 1022.91
313.15 K, x2 = 0.4243 | 1002.32
313.15 K, x2 = 0.4861 | 982.96
313.15 K, x2 = 0.5349 | 968.22
313.15 K, x2 = 0.5924 | 951.44
313.15 K, x2 = 0.6521 | 934.66
313.15 K, x2 = 0.7134 | 918.04
313.15 K, x2 = 0.7634 | 904.91
313.15 K, x2 = 0.8325 | 887.34
313.15 K, x2 = 0.9334 | 862.75
323.15 K, x2 = 0 | 1142.43
323.15 K, x2 = 0.0525 | 1120.74
323.15 K, x2 = 0.1203 | 1093.93
323.15 K, x2 = 0.1832 | 1070.24
323.15 K, x2 = 0.2498 | 1046.31
323.15 K, x2 = 0.3103 | 1025.54
323.15 K, x2 = 0.3667 | 1006.98
323.15 K, x2 = 0.4327 | 986.16
323.15 K, x2 = 0.4962 | 967.01
323.15 K, x2 = 0.5587 | 948.93
323.15 K, x2 = 0.6148 | 933.3
323.15 K, x2 = 0.6813 | 915.46
323.15 K, x2 = 0.7539 | 896.75
323.15 K, x2 = 0.8013 | 884.94
323.15 K, x2 = 0.8625 | 870.1
323.15 K, x2 = 0.9346 | 853.17
333.15 K, x2 = 0 | 1123.99
333.15 K, x2 = 0.0478 | 1104.87
333.15 K, x2 = 0.1249 | 1075.39
333.15 K, x2 = 0.1942 | 1050.25
333.15 K, x2 = 0.2571 | 1028.52
333.15 K, x2 = 0.3245 | 1006.29
333.15 K, x2 = 0.3878 | 986.36
333.15 K, x2 = 0.4313 | 973.16
333.15 K, x2 = 0.5138 | 949.16
333.15 K, x2 = 0.582 | 930.28
333.15 K, x2 = 0.6842 | 903.43
333.15 K, x2 = 0.7323 | 891.34
333.15 K, x2 = 0.7723 | 881.53
333.15 K, x2 = 0.8248 | 868.96
333.15 K, x2 = 0.8833 | 855.34
333.15 K, x2 = 0.9429 | 841.84
343.15 K, x2 = 0 | 1105.98
343.15 K, x2 = 0.0634 | 1081.55
343.15 K, x2 = 0.1278 | 1057.84
343.15 K, x2 = 0.1798 | 1039.5
343.15 K, x2 = 0.2348 | 1020.82
343.15 K, x2 = 0.3013 | 999.21
343.15 K, x2 = 0.3703 | 977.83
343.15 K, x2 = 0.4259 | 961.33
343.15 K, x2 = 0.4829 | 945.05
343.15 K, x2 = 0.5329 | 931.26
343.15 K, x2 = 0.5928 | 915.31
343.15 K, x2 = 0.6528 | 899.92
343.15 K, x2 = 0.7132 | 884.96
343.15 K, x2 = 0.7829 | 868.32
343.15 K, x2 = 0.8532 | 852.13
343.15 K, x2 = 0.9253 | 836.07
353.15 K, x2 = 0 | 1088.38
353.15 K, x2 = 0.0622 | 1065.11
353.15 K, x2 = 0.1199 | 1044.44
353.15 K, x2 = 0.1874 | 1021.32
353.15 K, x2 = 0.2401 | 1004.03
353.15 K, x2 = 0.3149 | 980.58
353.15 K, x2 = 0.3871 | 959.07
353.15 K, x2 = 0.451 | 940.91
353.15 K, x2 = 0.5249 | 920.84
353.15 K, x2 = 0.5832 | 905.67
353.15 K, x2 = 0.6591 | 886.72
353.15 K, x2 = 0.7249 | 870.97
353.15 K, x2 = 0.7719 | 860.05
353.15 K, x2 = 0.8529 | 841.86
353.15 K, x2 = 0.8941 | 832.88
353.15 K, x2 = 0.9483 | 821.31
